Test results published in PMC6968383, “Design, synthesis, in vitro and in vivo evaluation of benzylpiperidine-linked 1,3-dimethylbenzimidazolinones as cholinesterase inhibitors against Alzheimer’s disease” (Journal of Enzyme Inhibition and Medicinal Chemistry, 2019).

Tests used:
[1] = target: T1, AChE (EC 3.1.1.7) from human (Homo sapiens, UniProt P22303); assay: human AChE inhibition assay, Ellman's method; type: biochemical; details: for IC50: human AChE, mean ± SEM, read-out: huAChE IC50
T1 construct: purchased Sigma-Aldrich
T1 sequence (P22303 32-614): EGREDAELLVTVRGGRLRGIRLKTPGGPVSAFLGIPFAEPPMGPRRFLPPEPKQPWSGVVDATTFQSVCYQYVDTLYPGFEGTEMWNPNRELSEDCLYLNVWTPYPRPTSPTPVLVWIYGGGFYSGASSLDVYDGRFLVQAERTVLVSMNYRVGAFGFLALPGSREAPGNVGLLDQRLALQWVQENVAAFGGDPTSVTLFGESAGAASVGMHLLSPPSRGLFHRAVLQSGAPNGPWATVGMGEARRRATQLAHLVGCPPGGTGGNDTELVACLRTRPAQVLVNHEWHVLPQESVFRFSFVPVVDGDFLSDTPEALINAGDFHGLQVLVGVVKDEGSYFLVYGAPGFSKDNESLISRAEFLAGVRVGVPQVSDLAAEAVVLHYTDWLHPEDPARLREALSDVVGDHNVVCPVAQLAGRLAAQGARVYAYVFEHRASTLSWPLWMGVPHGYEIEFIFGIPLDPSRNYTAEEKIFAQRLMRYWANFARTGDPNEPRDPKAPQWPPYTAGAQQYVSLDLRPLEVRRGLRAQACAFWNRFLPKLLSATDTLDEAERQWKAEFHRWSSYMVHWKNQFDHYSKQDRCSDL
Protocol: ; The inhibitory activities of the target compounds towards AChE (from Electrophorus electricus (electric eeAChE, Sigma-Aldrich) and horse serum BChE (eqBChE, Sigma-Aldrich) or human AChE – huAChE; human BuChE – huBuChE (huAChE, huBuChE, Sigma-Aldrich) were measured by Ellman’s method. In 96-well plates, a mixture of phosphate buffer (0.1 M, pH 8.0, […]), 5,5′-dithiobis-2-nitrobenzoic acid (DTNB, 60 µL), acetylcholinestrase or butyrylcholinesterase (20 µL, 5 IU/mL) and different concentration of the compound solution (30 µL) was pre-incubated for 5 min followed by the addition of the substrate (acetylthiocholine iodide or butyrylthiocholine iodide, 20 µL). Changes in absorbance were measured at 412 nm by using microplate reader (Thermo, Varioskan Flash 3001, USA). The measurement of each concentration for each compound was detected in triplicate. GraphPad Prism 6.0 (GraphPad Software, Inc., La Jolla, CA) was used for data processing. The inhibition curve was fitted by plotting percentage enzyme activity (100% for the reference) versus the logarithm of the concentration of tested compound. The half-maximal inhibitory concentration (IC50) values were calculated according to the inhibition curve and the data were shown in the layout of mean ± SEM by GraphPad Prism 6.0.

HepG2 cells = assay: In vitro hepatotoxicity on HepG2 cell line (MTT); type: cell-based; details: 5, 15, 50 µM, 24 h, compared to donepezil
Protocol: PC12 cell and HepG2 cell (human hepatocellular liver carcinoma cell line purchased from Institute of Materia of Chinese Academy of Medical Science), were grown in DMEM supplemented with 10% FBS at 37 °C in a humidified atmosphere containing 5% CO2. For the experiments, cells (6 × 10^3 cells/well) were seeded in 96-well plate in complete medium. […]

PC12 cells = assay: Neuroprotection against H2O2-induced cell death in PC12 cells; type: cell-based; details: PC12 cells pre-treated 24 h, 800 µM H2O2
Protocol: We evaluated the cytoprotective effects of 15b and 15j on H2O2-induced cell damage. Treatment with 800 µM H2O2 for 24 h caused over 55% death rate of PC12 cells compared with the control group (Supplementary Figure S2(A)).
Figure S1. (A) The inhibitory effect of 15b and 15j on i Aβ1-42 self-aggregation. (B) […]
1.3. Neuroprotection assay against H2O2-induced cell death in PC12 cells Cytotoxicity was determined by using 3-(4,5-dimethylthiazol-2-yl)-2,5-diphenyltetrazoliumbromide (MTT) assay. The PC-12 cell line was purchased from Cell Bank of the Chinese Academy of Sciences (Shanghai, China). MTT was purchased from Sigma (M2128, St. Louis, MO). It was dissolved in phosphate buffered saline (PBS) to a stock concentration of 5 mg mL-1 and stored at - 20 °C. PC-12 cells were plated in 96-well plates, raised to a population of 1 × 10^4 cells per well, and incubated overnight. […]
Then the solution was removed and 150.0 μL of DMSO was added into each well to dissolve the MTT formazan crystals. […] The absorbance values (OD value) were read at 570 nm by microplate reader (Thermo, Varioskan Flash 3001, USA). The inhibitory rate for each concentration of the test compound was calculated by the equation as follows: […]
Here, ODtest, ODblank, and ODcontrol stand for the OD value from test compound, background, and DMSO, respectively. The IC50 values were calculated by GraphPad […]

[2] = system: scopolamine-induced cognition impairment in ICR mice; assay: Morris water maze test, scopolamine-induced cognition impairment; type: in vivo; details: oral 15 mg kg−1, scopolamine 1 mg kg−1 ip, probe trial on sixth day, mean ± SEM n = 6
Protocol: The test included 5 days of learning and memory training and a probe trial on the sixth day.
Scopolamine hydrobromide was supplied by Aladdin Reagents (H1507073, Shanghai, China).
Cognitive function was evaluated by the Morris water maze analysis-management system (SMART 3.0, Panlab, Madrid, Spain), according to the method previously described[30].The maze was placed in a lit room with visual cues at 25 °C. An escape platform (10 cm diameter) was located in the centre of one quadrant of the circular pool (120 cm diameter, 60 cm height) with a depth of 40 cm water. The behavioural study of each mouse included 5 days of learning and memory training and a probe trial on day 6. The animal starting positions faced to the pool wall, and were pseudorandomised for each trial. For the cognitive evaluation, each mouse was individually evaluated on both visible-platform (days 1–2) and hidden-platform (days 3–5) versions of the water maze. All mice received nonspatial pretraining during the first two training days, which prepared them for the subsequent spatial learning test. During the two days, mice were trained to find the platform that was labelled by a small flag (5 cm tall). The hidden platform version was used to determine the retention of memory to find the platform. During the hidden-platform training trials, the escape platform was placed 1 cm below the surface of the water. On each day, the animal was subjected to two trials, each of which lasted for 90 s. The time for the mouse to find the platform (a successful escape) was recorded. […] On the last day (day 6), the platform was removed from its location and the animals were given a probe trial in which they had 90 s to search for the platform. The time taken to reach the missing platform and the number of times the animals crossed the platform location were recorded.
Data for the time of escape latency, the trajectory travelled, and the number of platform location crossings were recorded by SMART 3.0, Panlab, Madrid, Spain and processed by GraphPad Prism 6.0.

Structure (SMILES) | IC50 [1] [µM] | toxicity on HepG2 cell viability (HepG2 cells) | cytoprotective effect on H2O2-induced cell damage (PC12 cells) | Distance to target [2] [cm] | Latency to target [2] [s] | SI (selectivity index = AChE IC50/BChE IC50) ([1]; huAChE IC50 / huBChE IC50)
Cc1ccccc1CN1CCC(CNS(=O)(=O)c2ccc3c(c2)n(C)c(=O)n3C)CC1 [Compound 15b, 1,3-dimethyl-N-((1–(2-methylbenzyl)piperidin-4-yl)methyl)-2-oxo-2,3-dihydro-1H-benzo[d]imidazole-5-sulphonamide] | 1.49 ± 0.43 | low toxicity on cell viability | the mortality rate of PC12 cells caused by H2O2 was reduced | 252.32 ± 8.42 | 9.29 ± 0.31 | 
Cn1c(=O)n(C)c2cc(S(=O)(=O)NCC3CCN(Cc4cccc(Br)c4)CC3)ccc21 [Compound 15j, N-((1–(3-bromobenzyl)piperidin-4-yl)methyl)-1,3-dimethyl-2-oxo-2,3-dihydro-1H-benzo[d]imidazole-5-sulphonamide] | 1.25 ± 0.48 | low toxicity on cell viability | the mortality rate of PC12 cells caused by H2O2 was reduced | 350.27 ± 16.59 | 12.85 ± 0.72 | 1.89
